Test results taken from ChEMBL document CHEMBL4311992, “Discovery of 3-(((9H-purin-6-yl)amino)methyl)-4,6-dimethylpyridin-2(1H)-one derivatives as novel tubulin polymerization inhibitors for treatment of cancer” (Eur J Med Chem, 2019).
Calls of active or inactive are those of the source. No cut-off for these calls is given here.

Assays:
[1] = test system: Angiopoietin-1 receptor (Homo sapiens), Q02763 [Q939H,Q940H]; assay: Inhibition of human Tie2 Q939H/Q940H mutant (771 to end residues) using poly(Glu, Tyr) 4:1 as substrate measured after 40 mins in presence of [gamma33P]ATP by scintillation counting method; parameters: scale not given: the % may be the effect or the level left
Angiopoietin-1 receptor (Homo sapiens), Q02763 [Q939H,Q940H], sequence (Q02763 whole entry Q939H/Q940H, the tested form may be a part): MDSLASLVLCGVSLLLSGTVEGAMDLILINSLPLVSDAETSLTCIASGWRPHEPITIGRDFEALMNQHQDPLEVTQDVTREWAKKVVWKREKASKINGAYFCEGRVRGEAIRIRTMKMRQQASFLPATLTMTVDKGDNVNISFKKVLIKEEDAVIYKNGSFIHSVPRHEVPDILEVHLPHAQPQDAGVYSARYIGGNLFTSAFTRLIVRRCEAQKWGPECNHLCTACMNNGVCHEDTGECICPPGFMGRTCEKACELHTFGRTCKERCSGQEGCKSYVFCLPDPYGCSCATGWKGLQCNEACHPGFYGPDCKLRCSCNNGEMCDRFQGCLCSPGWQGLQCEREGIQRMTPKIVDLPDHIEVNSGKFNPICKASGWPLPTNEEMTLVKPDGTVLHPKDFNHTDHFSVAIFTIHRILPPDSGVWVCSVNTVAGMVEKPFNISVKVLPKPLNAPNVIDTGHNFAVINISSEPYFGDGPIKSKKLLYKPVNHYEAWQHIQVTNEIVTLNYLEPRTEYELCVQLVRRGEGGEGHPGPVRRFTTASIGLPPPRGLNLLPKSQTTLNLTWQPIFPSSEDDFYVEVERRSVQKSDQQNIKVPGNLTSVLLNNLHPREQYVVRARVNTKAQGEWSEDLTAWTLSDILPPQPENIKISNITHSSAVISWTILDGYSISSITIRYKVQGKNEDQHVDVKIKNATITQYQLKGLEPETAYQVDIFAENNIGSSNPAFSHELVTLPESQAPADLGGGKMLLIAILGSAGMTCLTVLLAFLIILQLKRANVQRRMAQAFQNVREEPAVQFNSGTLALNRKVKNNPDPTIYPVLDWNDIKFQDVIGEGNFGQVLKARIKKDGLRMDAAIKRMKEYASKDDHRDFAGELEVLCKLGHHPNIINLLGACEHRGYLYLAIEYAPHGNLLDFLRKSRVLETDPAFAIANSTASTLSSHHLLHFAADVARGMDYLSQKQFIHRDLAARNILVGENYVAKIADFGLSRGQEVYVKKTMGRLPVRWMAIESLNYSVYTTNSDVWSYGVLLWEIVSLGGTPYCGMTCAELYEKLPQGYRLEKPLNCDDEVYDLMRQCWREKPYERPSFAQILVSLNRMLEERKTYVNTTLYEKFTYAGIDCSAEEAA

[2] = target: Serine/threonine-protein kinase PLK2 (Homo sapiens) (UniProt Q9NYY3); assay: Inhibition of human Snk (65 to 409 residues) using casein as substrate measured after 40 mins in presence of [gamma33P]ATP by scintillation counting method; parameters: scale not given: the % may be the effect or the level left
Serine/threonine-protein kinase PLK2 (Homo sapiens), sequence (Q9NYY3 whole entry, looked up, the tested form may be a part): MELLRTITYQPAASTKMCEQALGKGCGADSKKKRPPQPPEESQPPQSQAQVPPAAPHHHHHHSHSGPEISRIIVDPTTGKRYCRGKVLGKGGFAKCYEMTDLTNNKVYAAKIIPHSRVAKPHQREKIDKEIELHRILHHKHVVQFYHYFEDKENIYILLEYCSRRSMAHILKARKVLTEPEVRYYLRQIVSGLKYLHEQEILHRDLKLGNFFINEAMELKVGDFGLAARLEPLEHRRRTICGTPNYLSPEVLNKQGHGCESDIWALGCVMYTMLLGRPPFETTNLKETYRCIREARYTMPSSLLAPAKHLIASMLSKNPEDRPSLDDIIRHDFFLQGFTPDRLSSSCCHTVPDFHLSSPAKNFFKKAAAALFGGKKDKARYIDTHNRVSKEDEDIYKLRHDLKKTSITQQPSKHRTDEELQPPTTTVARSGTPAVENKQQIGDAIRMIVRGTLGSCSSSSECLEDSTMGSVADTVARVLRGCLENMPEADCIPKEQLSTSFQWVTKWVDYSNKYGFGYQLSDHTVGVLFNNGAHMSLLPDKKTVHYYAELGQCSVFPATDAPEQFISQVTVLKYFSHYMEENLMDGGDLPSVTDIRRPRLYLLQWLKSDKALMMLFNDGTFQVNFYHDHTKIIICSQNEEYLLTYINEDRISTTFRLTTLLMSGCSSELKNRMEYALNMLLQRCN

[3] = target: Ribosomal protein S6 kinase alpha-6 (Homo sapiens) (UniProt Q9UK32); assay: Inhibition of recombinant full-length human Rsk4 assessed as residual activity at 10 uM using LRRASLG as substrate measured after 40 mins in presence of [gamma33P]ATP by scintillation counting method
[4] = target: Serine/threonine-protein kinase PAK 4 (Homo sapiens) (UniProt O96013); assay: Inhibition of recombinant human PAK4 (295 to end residues) assessed as residual activity at 10 uM using myelin basic protein as substrate measured after 40 mins in presence of [gamma33P]ATP by scintillation counting method
[5] = target: Serine/threonine-protein kinase Nek9 (Homo sapiens) (UniProt Q8TD19); assay: Inhibition of recombinant human NEK9 (1 to 324 residues) assessed as residual activity at 10 uM using myelin basic protein as substrate measured after 40 mins in presence of [gamma33P]ATP by scintillation counting method
[6] = target: Muscle, skeletal receptor tyrosine-protein kinase (Homo sapiens) (UniProt O15146); assay: Inhibition of recombinant human MuSK (530 to end residues) assessed as residual activity at 10 uM using myelin basic protein as substrate measured after 40 mins in presence of [gamma33P]ATP by scintillation counting method
Muscle, skeletal receptor tyrosine-protein kinase (Homo sapiens), sequence (O15146 whole entry): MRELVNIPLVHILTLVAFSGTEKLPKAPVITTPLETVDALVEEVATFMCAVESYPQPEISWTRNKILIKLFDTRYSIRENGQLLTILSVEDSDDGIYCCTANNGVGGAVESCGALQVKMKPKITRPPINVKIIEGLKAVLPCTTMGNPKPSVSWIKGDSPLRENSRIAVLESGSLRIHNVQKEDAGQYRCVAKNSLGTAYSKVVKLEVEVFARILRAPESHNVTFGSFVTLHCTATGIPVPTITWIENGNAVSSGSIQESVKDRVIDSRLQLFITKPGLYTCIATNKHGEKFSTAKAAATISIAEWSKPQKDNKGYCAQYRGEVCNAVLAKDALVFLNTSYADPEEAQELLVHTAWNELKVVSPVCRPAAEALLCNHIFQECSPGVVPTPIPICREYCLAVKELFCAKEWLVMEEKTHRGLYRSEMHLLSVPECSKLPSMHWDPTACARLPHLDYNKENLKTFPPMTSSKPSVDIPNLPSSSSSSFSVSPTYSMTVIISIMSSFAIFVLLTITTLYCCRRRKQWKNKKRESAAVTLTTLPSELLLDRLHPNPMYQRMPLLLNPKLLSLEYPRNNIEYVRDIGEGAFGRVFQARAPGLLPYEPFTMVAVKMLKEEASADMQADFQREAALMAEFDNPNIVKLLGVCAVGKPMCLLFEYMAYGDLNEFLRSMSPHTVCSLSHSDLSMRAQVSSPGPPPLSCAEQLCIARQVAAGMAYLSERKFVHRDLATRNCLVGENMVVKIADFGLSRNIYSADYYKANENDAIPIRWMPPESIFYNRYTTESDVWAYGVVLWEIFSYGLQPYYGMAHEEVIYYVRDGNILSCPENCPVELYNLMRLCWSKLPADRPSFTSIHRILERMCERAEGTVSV

[7] = test system: Hepatocyte growth factor receptor (Homo sapiens), P08581 [Y1230H]; assay: Inhibition of recombinant human MET A1209G/V1290L/Y1248H mutant (974 to end residues) assessed as residual activity at 10 uM using KKKGQEEEYVFIE as substrate measured after 40 mins in presence of [gamma33P]ATP by scintillation counting method
[8] = target: Cyclin-dependent kinase 13/Cyclin-K (Homo sapiens) (UniProt Q14004+O75909); assay: Inhibition of recombinant full length human CDK13/cyclinK assessed as residual activity at 10 uM using RSRSRSRSRSRSRSR as substrate measured after 120 mins in presence of [gamma33P]ATP by scintillation counting method; format: protein-complex assay
[9] = target: Histone-lysine N-methyltransferase EZH2 (Homo sapiens) (UniProt Q15910); assay: Inhibition of EZH2 (unknown origin) at 10 uM relative to control
Histone-lysine N-methyltransferase EZH2 (Homo sapiens), sequence (Q15910 whole entry, looked up): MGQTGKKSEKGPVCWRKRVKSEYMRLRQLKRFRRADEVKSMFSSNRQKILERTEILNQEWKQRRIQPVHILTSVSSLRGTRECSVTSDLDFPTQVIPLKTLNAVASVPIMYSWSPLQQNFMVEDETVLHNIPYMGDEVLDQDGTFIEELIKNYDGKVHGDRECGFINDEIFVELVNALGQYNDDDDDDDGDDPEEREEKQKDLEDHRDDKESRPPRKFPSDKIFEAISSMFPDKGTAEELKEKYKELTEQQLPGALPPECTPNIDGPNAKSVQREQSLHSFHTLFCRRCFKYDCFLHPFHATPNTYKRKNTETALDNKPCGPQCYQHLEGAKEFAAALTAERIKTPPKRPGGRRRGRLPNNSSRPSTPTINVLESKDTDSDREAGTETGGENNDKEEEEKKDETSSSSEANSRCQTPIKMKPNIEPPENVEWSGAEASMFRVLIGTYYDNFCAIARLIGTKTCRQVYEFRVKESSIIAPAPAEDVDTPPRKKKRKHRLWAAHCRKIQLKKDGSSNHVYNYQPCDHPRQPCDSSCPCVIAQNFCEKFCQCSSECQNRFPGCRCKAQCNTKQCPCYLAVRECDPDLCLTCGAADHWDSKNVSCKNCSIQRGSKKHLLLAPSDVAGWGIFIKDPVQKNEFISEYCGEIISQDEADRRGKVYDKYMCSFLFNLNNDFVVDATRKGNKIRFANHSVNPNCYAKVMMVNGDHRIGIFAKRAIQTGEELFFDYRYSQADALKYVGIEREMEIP

Mus musculus [10] = species on record: Mus musculus; assay: Inhibition of recombinant full-length mouse PI3K p110beta/p85beta R123L mutant assessed as residual activity at 10 uM using phosphatidylinositol-4, 5-bisphosphate as substrate measured after 40 mins by HTRF assay
Mus musculus [11] = species on record: Mus musculus; assay: Inhibition of recombinant full-length mouse PI3K p110beta/p85alpha R123L mutant assessed as residual activity at 10 uM using phosphatidylinositol-4, 5-bisphosphate as substrate measured after 40 mins by HTRF assay
[12] = target: Eukaryotic translation initiation factor 2-alpha kinase 1 (Homo sapiens) (UniProt Q9BQI3); assay: Inhibition of recombinant human HRI (140 to end residues) assessed as residual activity at 10 uM using RSRSRSRSRSRSRSR as substrate measured after 120 mins in presence of [gamma33P]ATP by scintillation counting method
[13] = target: Fibroblast growth factor receptor 3 (Homo sapiens) (UniProt P22607); assay: Inhibition of recombinant human FGFR3 (447 to 761 residues) assessed as residual activity at 10 uM using poly(Glu, Tyr) 4:1 as substrate measured after 40 mins in presence of [gamma33P]ATP by scintillation counting method
Fibroblast growth factor receptor 3 (Homo sapiens), sequence (P22607 23-806 limits assumed): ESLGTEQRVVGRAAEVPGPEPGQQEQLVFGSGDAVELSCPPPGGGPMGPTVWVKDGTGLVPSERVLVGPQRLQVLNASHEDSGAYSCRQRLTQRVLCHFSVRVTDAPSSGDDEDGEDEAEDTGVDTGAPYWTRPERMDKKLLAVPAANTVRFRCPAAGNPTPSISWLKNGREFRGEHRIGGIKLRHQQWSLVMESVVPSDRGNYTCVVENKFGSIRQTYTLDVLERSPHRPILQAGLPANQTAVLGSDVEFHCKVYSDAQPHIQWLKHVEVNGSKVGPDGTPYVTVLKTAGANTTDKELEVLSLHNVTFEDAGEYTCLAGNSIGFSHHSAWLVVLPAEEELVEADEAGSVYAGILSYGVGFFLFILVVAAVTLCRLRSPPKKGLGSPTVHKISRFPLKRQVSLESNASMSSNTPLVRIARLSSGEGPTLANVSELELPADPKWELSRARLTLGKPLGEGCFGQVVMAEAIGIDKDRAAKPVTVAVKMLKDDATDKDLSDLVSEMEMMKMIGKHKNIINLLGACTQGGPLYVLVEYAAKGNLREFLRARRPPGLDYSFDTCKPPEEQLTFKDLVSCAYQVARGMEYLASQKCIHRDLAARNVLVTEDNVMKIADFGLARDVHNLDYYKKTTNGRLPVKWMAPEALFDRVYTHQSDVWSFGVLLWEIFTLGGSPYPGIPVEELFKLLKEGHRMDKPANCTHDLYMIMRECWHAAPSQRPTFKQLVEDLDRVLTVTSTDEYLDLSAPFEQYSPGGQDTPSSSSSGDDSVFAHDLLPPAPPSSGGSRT

[14] = target: Tyrosine-protein kinase Fer (Homo sapiens) (UniProt P16591); assay: Inhibition of recombinant human FER (541 to end residues) assessed as residual activity at 10 uM using KKKSPGEYVNIEFG as substrate measured after 40 mins in presence of [gamma33P]ATP by scintillation counting method
[15] = target: Activin receptor type-1-like (Homo sapiens) (UniProt P37023); assay: Inhibition of recombinant human ALK1 (142 to end residues) assessed as residual activity at 10 uM using casein as substrate measured after 40 mins in presence of [gamma33P]ATP by scintillation counting method
Activin receptor type-1-like (Homo sapiens), sequence (P37023 whole entry): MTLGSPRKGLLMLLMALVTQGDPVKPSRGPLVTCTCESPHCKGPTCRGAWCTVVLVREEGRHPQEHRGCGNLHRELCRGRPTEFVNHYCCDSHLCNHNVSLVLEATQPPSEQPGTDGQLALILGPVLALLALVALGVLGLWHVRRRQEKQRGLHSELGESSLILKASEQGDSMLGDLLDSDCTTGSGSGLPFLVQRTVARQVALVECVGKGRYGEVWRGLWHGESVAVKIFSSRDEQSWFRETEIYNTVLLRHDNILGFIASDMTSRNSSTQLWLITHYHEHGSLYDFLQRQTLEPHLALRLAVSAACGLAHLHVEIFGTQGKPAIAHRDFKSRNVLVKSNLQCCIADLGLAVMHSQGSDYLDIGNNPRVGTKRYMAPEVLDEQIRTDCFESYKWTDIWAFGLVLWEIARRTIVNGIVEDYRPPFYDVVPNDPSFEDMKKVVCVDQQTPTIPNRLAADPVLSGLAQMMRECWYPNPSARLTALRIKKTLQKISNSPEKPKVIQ

HCT-116 [16] = assay: Cell cycle arrest in human HCT116 cells assessed as up regulation of CyclinB1 expression up to 150 nM after 24 hrs by Western blot analysis; format: functional, cell-based
HCT-116 [17] = assay: Induction of apoptosis in human HCT116 cells measured after 48 hrs by Annexin V-FITC/propidium iodide staining-based flow cytometric analysis; format: functional, cell-based
SW-620 [18] = assay: Induction of apoptosis in human SW620 cells assessed as increase in Bax expression up to 200 nM measured after 48 hrs by Western blot analysis; format: functional, cell-based
[19] = target: Serine/threonine-protein kinase MAK (Homo sapiens) (UniProt P20794); assay: Inhibition of recombinant full-length human MAK assessed as residual activity at 10 uM using RRRFRPASPLRGPPK as substrate measured after 120 mins in presence of [gamma33P]ATP by scintillation counting method
[20] = target: Mitogen-activated protein kinase 1 (Homo sapiens) (UniProt P28482); assay: Inhibition of recombinant full-length human MAPK1 assessed as residual activity at 10 uM using myelin basic protein as substrate measured after 40 mins in presence of [gamma33P]ATP by scintillation counting method
Mitogen-activated protein kinase 1 (Homo sapiens), sequence (P28482 whole entry): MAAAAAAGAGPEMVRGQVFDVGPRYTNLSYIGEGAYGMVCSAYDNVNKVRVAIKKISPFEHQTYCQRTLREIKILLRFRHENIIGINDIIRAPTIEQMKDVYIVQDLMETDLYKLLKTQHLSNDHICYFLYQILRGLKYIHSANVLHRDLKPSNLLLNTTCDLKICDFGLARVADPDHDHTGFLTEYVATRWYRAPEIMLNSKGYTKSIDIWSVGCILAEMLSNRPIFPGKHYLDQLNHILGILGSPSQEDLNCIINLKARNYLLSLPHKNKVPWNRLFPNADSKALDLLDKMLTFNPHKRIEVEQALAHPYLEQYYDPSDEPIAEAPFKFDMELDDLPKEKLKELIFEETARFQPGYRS

[21] = target: cGMP-dependent protein kinase 2 (Homo sapiens) (UniProt Q13237); assay: Inhibition of recombinant full-length human PRKG2 assessed as residual activity at 10 uM using KKLRRTLSFAEPG as substrate measured after 40 mins in presence of [gamma33P]ATP by scintillation counting method
[22] = target: Serine/threonine-protein kinase ULK3 (Homo sapiens) (UniProt Q6PHR2); assay: Inhibition of recombinant full-length human ULK3 assessed as residual activity at 10 uM using casein as substrate measured after 40 mins in presence of [gamma33P]ATP by scintillation counting method
[23] = target: Tyrosine-protein kinase ZAP-70 (Homo sapiens) (UniProt P43403); assay: Inhibition of recombinant full-length human ZAP70 assessed as residual activity at 10 uM using poly(Glu, Tyr) 4:1 as substrate measured after 40 mins in presence of [gamma33P]ATP by scintillation counting method
[24] = Toxicity in nude BALB/c mouse assessed as change in total protein level at 40 to 80 mg/kg, po once daily for 4 weeks measured post-last dose; format: organism-based; details: in vivo, 672 h
SW-620 [25] = assay: Induction of apoptosis in human SW620 cells assessed as early apoptotic cells at 25 nM measured after 48 hrs by Annexin V-FITC/propidium iodide staining-based flow cytometry (reference value: 0.773%); format: functional
HCT-116 [26] = assay: Induction of apoptosis in human HCT116 cells assessed as necrotic cells at 50 nM measured after 48 hrs by Annexin V-FITC/propidium iodide staining-based flow cytometry (reference value: 1.16%); format: functional

## Cc1cc(C)c(CNc2nc(Cl)nc3c2ncn3C2CCCC2)c(=O)[nH]1
[1]
  Activity: 75.5%
[2]
  Activity: 106%
[3]
  Activity: 98.5%
[4]
  Activity: 106%
[5]
  Activity: 102%
[6]
  Activity: 114%
[7]
  Activity: 99%
[8]
  Activity: 97%
[9]
  inhibition: -9%
Mus musculus [10]
  Activity: 101%
Mus musculus [11]
  Activity: 104%
[12]
  Activity: 102%
[13]
  Activity: 94.5%
[14]
  Activity: 108%
[15]
  Activity: 98%
HCT-116 [16]
  Activity: Active
HCT-116 [17]
  Activity: Dose-dependent effect
SW-620 [18]
  Activity: Active
[19]
  Activity: 106%
[20]
  Activity: 97.5%
[21]
  Activity: 98%
[22]
  Activity: 102%
[23]
  Activity: 95.5%
[24]
  Activity: Non-Toxic
SW-620 [25]
  Activity: 1.22%
HCT-116 [26]
  Activity: 7.59%
